Data on 3 compounds can be found in US8729035B2, “Synthesis of novel neamine derivatives and use thereof as antibacterial agents” (Universite Joseph Fourier, priority 2008, dated 2014).

Common to all, as to experiment: MIC determination on r-methylase-expressing resistant Gram (-) bacteria
One experiment deals with E. coli 06AB003 arm. Format: cell-based. As to conditions: Escherichia coli, 06AB003ARM, 24 h. The procedure: (§1) The molecules were dissolved in water or DMSO at a concentration of 5 or 10 mg/mL, then the solutions were diluted if necessary. A volume of 200 μL of each of them was put onto a 96-well plate.
(§2) C—Determination of the MIC
(§3) The molecules with a screening score of 10 or 100 were selected to determine their MICs relative to the strains tested.
(§4) As for the validation of the strains, the solution of the molecule selected was diluted by a factor of 2, times 2, using the Biomek2000 robot in 96-well plates to cover a wide range of concentrations. To each of these wells was added a volume of inoculum made from the previous days preculture diluted to 1/100th strength. Each well was repeated. Again, controls of non-contamination, growth and resistance/sensitivity to a reference antibiotic were included in the experiment. The plate was incubated at 37° C., and the kinetics of the bacterial proliferation were monitored over 24 hours, by measuring the OD620 nm at 0, 1, 4, 7, and 24 hours.
(§5) The MIC was the lowest concentration found to be capable of inhibiting bacterial proliferation after 24 hours incubation. Having no previous idea of this value it was possible that it might not fall within the range of dilutions chosen. If this was the case the operation had to be repeated adjusting this range.
(§6) Similar measurements were made on various Gram (−) bacteria. The strains tested were provided by R. Vanhoof (E. coli PAZ505H8101 and L58058.1, P. aeruginosa ATCC 27853, Psa.F03, A. lwoffi A1.88-483), Y. Glupczynski (C. amalonaticus Ca06AB0010), J. C. Pechere (P. aeruginosa PA02, PA03), P. Plésiat (P. aeruginosa PA01, PA21, PA22), H. Schweizer (P. aeruginosa PA405, PA406).

The test system of experiment [1] is C. amalonaticus 06AB0010 arm. Format: cell-based. As to conditions: Citrobacter amalonaticus, 06AB0010ARM. The method, then: as §1, §2, §3, §4, §5, §6
A further experiment relates to E. aerogenes 06AB008 arm. Format: cell-based, Enterobacter aerogenes. As to conditions: Klebsiella aerogenes, 06AB008ARM, 24 h. The method, then:
as §1, §2, §3, §4, §5, §6

In brackets after ≈: the same amount, converted by molar mass. Where two headings read alike, the source gives them in different places.

The term MIC denotes the smallest concentration in the dilution series that meets the test's criterion for growth inhibition. With `NCC1OC(OC2C(N)CC(N)C(OCc3cccc4ccccc34)C2O)C(N)C(OCc2cccc3ccccc23)C1O` (stereo not drawn) [3′,6-di1NM, 3′,6-O,O′-di(naphthyl-1-methylene) neamine], the minimal inhibitory concentration (MIC) in the experiment on E. coli 06AB003 arm lay within 4 to 16 µg/mL (≈ 6.64 to 26.5 µM); in experiment [1] (resistant bacteria expressing an RNA methylation enzyme (r-methylase), one value stated for the three strains together, 24 hours incubation, read-out: MIC) it was 4 to 16 µg/mL (≈ 6.64 to 26.5 µM); in the experiment with E. aerogenes 06AB008 arm, 4 to 16 µg/mL (≈ 6.64 to 26.5 µM).
As for `NCC[C@H](O)C(=O)N[C@@H]1C[C@H](N)[C@@H](O[C@H]2O[C@H](CN)[C@@H](O)[C@H](O)[C@H]2O)[C@H](O)[C@H]1O[C@H]1O[C@H](CO)[C@@H](O)[C@H](N)[C@H]1O` [amikacin], the MIC (with E. coli 06AB003 arm; in experiment [1] (24 h); in the experiment with E. aerogenes 06AB008 arm) was greater than 128 µg/mL in each case.
As for `NC[C@H]1O[C@H](O[C@H]2[C@H](O)[C@@H](O[C@H]3O[C@H](CO)[C@@H](O)[C@H](N)[C@H]3O)[C@H](N)C[C@@H]2N)[C@H](N)C[C@@H]1O` [tobramycin], the MIC (in the experiment with E. coli 06AB003 arm; in experiment [1] (24 h); in the experiment on E. aerogenes 06AB008 arm) was greater than 128 µg/mL throughout.
